Assay results reported in the NIST ThermoML archive (doi:10.1016/j.jct.2015.05.006).

What was measured:
[1] = relative permittivity at various frequencies (dimensionless); xn = mol fraction of the nth substance listed; settings: 95.2 kPa, Liquid, Frequency=1 MHz, Parallel plate capacitor
[2] = xn = mol fraction of the nth substance listed; settings: 95.2 kPa, Liquid, Vibrating tube method

COCCOC [1,2-dimethoxyethane] + CCCCCC
Settings	mass density, [2] [kg/m3]	relative permittivity, [1]
288.15 K, x2 = 0	872.06	7.41
288.15 K, x2 = 0.0501	857.87	–
288.15 K, x2 = 0.0513	–	6.89
288.15 K, x2 = 0.0904	–	6.46
288.15 K, x2 = 0.1049	842.87	–
288.15 K, x2 = 0.1999	–	5.58
288.15 K, x2 = 0.2992	–	4.85
288.15 K, x2 = 0.2999	794.19	–
288.15 K, x2 = 0.4004	–	4.19
288.15 K, x2 = 0.4059	770.33	–
288.15 K, x2 = 0.4961	751.31	–
288.15 K, x2 = 0.4983	–	3.65
288.15 K, x2 = 0.6001	–	3.17
288.15 K, x2 = 0.6054	729.6	–
288.15 K, x2 = 0.694	713.16	–
288.15 K, x2 = 0.7004	–	2.77
288.15 K, x2 = 0.7916	696.41	–
288.15 K, x2 = 0.8057	–	2.41
288.15 K, x2 = 0.9022	–	2.14
288.15 K, x2 = 0.9035	678.43	–
288.15 K, x2 = 0.9509	–	2.02
288.15 K, x2 = 0.9533	670.87	–
298.15 K, x2 = 0	861.17	7.07
298.15 K, x2 = 0.0459	–	6.61
298.15 K, x2 = 0.0495	846.99	–
298.15 K, x2 = 0.0955	–	6.19
298.15 K, x2 = 0.1011	833.13	–
298.15 K, x2 = 0.2009	807.1	–
298.15 K, x2 = 0.2013	–	5.36
298.15 K, x2 = 0.2992	–	4.67
298.15 K, x2 = 0.3031	782.87	–
298.15 K, x2 = 0.398	–	4.07
298.15 K, x2 = 0.4027	760.92	–
298.15 K, x2 = 0.4977	740.86	–
298.15 K, x2 = 0.4984	–	3.53
298.15 K, x2 = 0.5959	721.71	–
298.15 K, x2 = 0.6014	–	3.08
298.15 K, x2 = 0.6972	703.06	–
298.15 K, x2 = 0.7019	–	2.7
298.15 K, x2 = 0.8016	–	2.38
298.15 K, x2 = 0.8051	684.57	–
298.15 K, x2 = 0.8985	670	–
298.15 K, x2 = 0.9031	–	2.11
298.15 K, x2 = 0.9477	–	2.01
308.15 K, x2 = 0	850.13	6.75
308.15 K, x2 = 0.0457	837.34	–
308.15 K, x2 = 0.0494	–	6.3
308.15 K, x2 = 0.0927	824.63	–
308.15 K, x2 = 0.0967	–	5.9
308.15 K, x2 = 0.1938	–	5.18
308.15 K, x2 = 0.2001	797.09	–
308.15 K, x2 = 0.2984	773.76	–
308.15 K, x2 = 0.3011	–	4.47
308.15 K, x2 = 0.3939	752.46	–
308.15 K, x2 = 0.4025	–	3.91
308.15 K, x2 = 0.4989	–	3.44
308.15 K, x2 = 0.5082	728.75	–
308.15 K, x2 = 0.5955	711.88	–
308.15 K, x2 = 0.6018	–	3
308.15 K, x2 = 0.6927	694.24	–
308.15 K, x2 = 0.699	–	2.66
308.15 K, x2 = 0.7982	–	2.36
308.15 K, x2 = 0.8036	675.37	–
308.15 K, x2 = 0.901	–	2.09
308.15 K, x2 = 0.9023	660.16	–
308.15 K, x2 = 0.9506	–	1.99
308.15 K, x2 = 0.9509	653.01	–
